Consider eleven compounds from PubChem BioAssay (NCI).

Some test systems named below: DMS 273 small cell lung; XF 498 CNS; KM20L2 colon; SNB-78 CNS; LXFL 529 NSCLC; M19-MEL melanoma; DLD-1 colon; RXF-631 renal; HOP-18 NSCLC.
Holding throughout (test): NCI anticancer screen, dose series, 48 h

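Results reflect a 48-hour exposure of cells in 96-well plates to compound at five concentrations. TGI denotes the concentration required for complete inhibition of growth.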

As for `OCc1ccc(C2CC(c3ccco3)=NN2c2ccccc2)o1` (centres undefined), the TGI with DMS 273 small cell lung, in the experiment on XF 498 CNS, in the experiment on KM20L2 colon, in the experiment with SNB-78 CNS, with LXFL 529 NSCLC and in the experiment on M19-MEL melanoma was greater than 100 µM each time.
In the case of `O=C(CN(c1ccccc1)c1ccccc1)n1nnc2ccccc21`, the TGI was greater than 100 µM with DMS 273 small cell lung; greater than 100 µM with KM20L2 colon; greater than 100 µM in the experiment with SNB-78 CNS; greater than 100 µM with LXFL 529 NSCLC; 48.6 µM with M19-MEL melanoma; greater than 100 µM in the experiment on DLD-1 colon.
For the compound `COc1cc2c3c(c1OC)C1(C=CC(=O)C=C1)C[C@H]3N(C)CC2`, the TGI in the experiment on DMS 273 small cell lung, with XF 498 CNS, with RXF-631 renal, in the experiment with KM20L2 colon, with SNB-78 CNS and with LXFL 529 NSCLC was greater than 100 µM each time. The TGI in the experiment with HOP-18 NSCLC, with M19-MEL melanoma and with DLD-1 colon was greater than 100 µM each time.
`CC(=O)O[C@]12CCCCCC1C1(O)C(O)CCCC[C@H]12` (some centres undefined): the TGI in the experiment with DMS 273 small cell lung, in the experiment on XF 498 CNS, with KM20L2 colon, with SNB-78 CNS, with LXFL 529 NSCLC and in the experiment with M19-MEL melanoma was greater than 100 µM in each case.
Take `O=C1NC2OC(C(O)CO)C(O)C2O1` (centres undefined): the TGI in the experiment with DMS 273 small cell lung, in the experiment on XF 498 CNS, in the experiment with KM20L2 colon, in the experiment on LXFL 529 NSCLC, in the experiment on HOP-18 NSCLC and in the experiment with M19-MEL melanoma was greater than 100 µM in each case.
As to `CC(=O)[C@@]1(O)CC[C@H]2[C@@H]3C[C@H](C)C4=CC(=O)C=C[C@]4(C)[C@@]3(F)[C@@H](O)C[C@@]21C`, the TGI in the experiment on DMS 273 small cell lung, with XF 498 CNS, in the experiment with RXF-631 renal, in the experiment with KM20L2 colon, in the experiment with SNB-78 CNS and in the experiment with LXFL 529 NSCLC was greater than 100 µM throughout. In addition, the TGI in the experiment with M19-MEL melanoma and with DLD-1 colon was greater than 100 µM each time.
`CSc1sc2ccccc2[s+]1`: the TGI with DMS 273 small cell lung, in the experiment on RXF-631 renal, in the experiment on KM20L2 colon, with LXFL 529 NSCLC, in the experiment on HOP-18 NSCLC and in the experiment with M19-MEL melanoma was greater than 100 µM throughout. This compound also returned a TGI in the experiment with DLD-1 colon greater than 100 µM.
As to `O=C1CSC(/C(=N/Nc2ccccc2)c2nc3ccccc3[nH]2)=N1`, the TGI in the experiment on DMS 273 small cell lung is 47.3 µM; with XF 498 CNS, 73.4 µM; in the experiment with KM20L2 colon, greater than 100 µM; with SNB-78 CNS it was greater than 100 µM; in the experiment on LXFL 529 NSCLC, greater than 100 µM; in the experiment on M19-MEL melanoma, greater than 100 µM. This compound also showed a TGI with DLD-1 colon greater than 100 µM.
For `C=CCc1ccc(Oc2cc(CC=C)c3c(c2O)O[C@@H](CO)[C@H]3c2ccc(O)c(-c3cc(CC=C)ccc3O)c2)cc1`, the TGI in the experiment with DMS 273 small cell lung was greater than 100 µM; in the experiment with KM20L2 colon it was 93.5 µM; with SNB-78 CNS it was greater than 100 µM; in the experiment with LXFL 529 NSCLC, 90.7 µM; in the experiment with HOP-18 NSCLC it was greater than 100 µM; in the experiment with M19-MEL melanoma it was greater than 100 µM. This compound also returned a TGI with DLD-1 colon greater than 100 µM.
For `CCOC(=O)c1ccc(C)c(N=NN(C)C)c1`, the TGI with DMS 273 small cell lung, in the experiment on XF 498 CNS, in the experiment on KM20L2 colon, with HOP-18 NSCLC, with M19-MEL melanoma and with DLD-1 colon was greater than 100 µM throughout.
On to `COc1c(C(C)C)cc2c3c1OC(=O)[C@@]31CCCC(C)(C)C1CC2` (some centres undefined), for which the TGI with DMS 273 small cell lung is greater than 100 µM; with KM20L2 colon, greater than 100 µM; in the experiment on SNB-78 CNS it was 67.1 µM; in the experiment with LXFL 529 NSCLC it was 49.8 µM; in the experiment with M19-MEL melanoma, 80.8 µM; with DLD-1 colon, greater than 100 µM.
